According to PMC5218480 (PLoS ONE, 2017):

Tested on: MV-4-11 cells
Experiment: Gene expression microarray analysis (Affymetrix PrimeView) and GSEA
Format: cell-based, human
Set-up: RFU PODN (11730768_x_at) / Fold change /veh PODN (11730768_x_at) / RFU LINC00158 (11744669_a_at) / Fold change /veh LINC00158 (11744669_a_at) / RFU DUSP10 (11751237_a_at) / Fold change /veh DUSP10 (11751237_a_at) / RFU ID3 (11757404_x_at) / Fold change /veh ID3 (11757404_x_at) / RFU PLEKHG5 (11737974_s_at) / Fold change /veh PLEKHG5 (11737974_s_at) / RFU LRRC4B (11730491_at) / Fold change /veh LRRC4B (11730491_at) / RFU GIMAP4 (11747438_a_at) / Fold change /veh GIMAP4 (11747438_a_at) / RFU KRT8 (11758183_x_at) / Fold change /veh KRT8 (11758183_x_at) / RFU CNN1 (11734310_a_at) / Fold change /veh CNN1 (11734310_a_at) / RFU VPS37D (11726825_at) / Fold change /veh VPS37D (11726825_at) / RFU C10orf10 (11716522_x_at) / Fold change /veh C10orf10 (11716522_x_at) / RFU KIR2DL2 /// KIR2DL4 /// KIR2DL5A /// KIR2DL5B /// KIR2DS1 /// KIR2DS2 /// KIR2DS3 /// KIR2DS4 /// KIR3DL3 /// KIR3DL3 /// KIR3DS1 (11738374_at) / Fold change /veh KIR2DL2 /// KIR2DL4 /// KIR2DL5A /// KIR2DL5B /// KIR2DS1 /// KIR2DS2 /// KIR2DS3 /// KIR2DS4 /// KIR3DL3 /// KIR3DL3 /// KIR3DS1 (11738374_at) / RFU C1QL1 (11718748_at) / Fold change /veh C1QL1 (11718748_at) / RFU TMPRSS4 (11747572_a_at) / Fold change /veh TMPRSS4 (11747572_a_at) / RFU HAMP (11756126_x_at) / Fold change /veh HAMP (11756126_x_at) / RFU RNFT2 (11725882_a_at) / Fold change /veh RNFT2 (11725882_a_at) / RFU NR4A2 (11747474_a_at) / Fold change /veh NR4A2 (11747474_a_at) / RFU ABCC12 (11746883_a_at) / Fold change /veh ABCC12 (11746883_a_at) / RFU TMEM136 (11760407_x_at) / Fold change /veh TMEM136 (11760407_x_at) / RFU CLDN22 /// WWC2 (11732394_at) / Fold change /veh CLDN22 /// WWC2 (11732394_at) / RFU HLA-DPB1 (11760878_x_at) / Fold change /veh HLA-DPB1 (11760878_x_at) / RFU SPINT1 (11716480_a_at) / Fold change /veh SPINT1 (11716480_a_at) / RFU GAP43 (11754022_s_at) / Fold change /veh GAP43 (11754022_s_at) / RFU A4GNT (11735810_at) / Fold change /veh A4GNT (11735810_at) / RFU PRB3 (11715151_x_at) / Fold change /veh PRB3 (11715151_x_at) / RFU TUBB4B (11761932_at) / Fold change /veh TUBB4B (11761932_at) / RFU CAPN14 (11732068_a_at) / Fold change /veh CAPN14 (11732068_a_at) / RFU TMCC2 (11721928_a_at) / Fold change /veh TMCC2 (11721928_a_at) / RFU IRGQ (11745062_a_at) / Fold change /veh IRGQ (11745062_a_at) / RFU FAM174B (11720279_a_at) / Fold change /veh FAM174B (11720279_a_at) / RFU TMPRSS4 (11748680_a_at) / Fold change /veh TMPRSS4 (11748680_a_at) / RFU FAM212B (11763350_a_at) / Fold change /veh FAM212B (11763350_a_at) / RFU PLEKHG5 (11743358_a_at) / Fold change /veh PLEKHG5 (11743358_a_at) / RFU ZSCAN30 (11745921_a_at) / Fold change /veh ZSCAN30 (11745921_a_at) / RFU CMKLR1 (11741424_a_at) / Fold change /veh CMKLR1 (11741424_a_at) / RFU LOC101060620 /// MAPK8IP1 (11723275_at) / Fold change /veh LOC101060620 /// MAPK8IP1 (11723275_at) / RFU SPTSSB (11747773_x_at) / Fold change /veh SPTSSB (11747773_x_at) / RFU PRSS12 (11739890_at) / Fold change /veh PRSS12 (11739890_at) / RFU BIN1 (11741810_x_at) / Fold change /veh BIN1 (11741810_x_at) / RFU WNT11 (11732464_a_at) / Fold change /veh WNT11 (11732464_a_at) / RFU C10orf10 (11716521_a_at) / Fold change /veh C10orf10 (11716521_a_at) / RFU C5orf56 (11738089_at) / Fold change /veh C5orf56 (11738089_at) / RFU CYB561 (11721691_x_at) / Fold change /veh CYB561 (11721691_x_at) / RFU ANKRD19P (11752326_a_at) / Fold change /veh ANKRD19P (11752326_a_at) / RFU OR2T12 /// OR2T33 /// OR2T8 (11738714_s_at) / Fold change /veh OR2T12 /// OR2T33 /// OR2T8 (11738714_s_at) / RFU VCAN (11748164_a_at) / Fold change /veh VCAN (11748164_a_at) / RFU JSRP1 (11732532_at) / Fold change /veh JSRP1 (11732532_at) / RFU KRTAP10-11 (11738290_x_at) / Fold change /veh KRTAP10-11 (11738290_x_at) / RFU MYO3A (11730013_a_at) / Fold change /veh MYO3A (11730013_a_at) / RFU EBF3 (11725865_a_at) / Fold change /veh EBF3 (11725865_a_at) / RFU CAMK2N1 (11719241_x_at) / Fold change /veh CAMK2N1 (11719241_x_at) / RFU C5orf56 (11738088_a_at) / Fold change /veh C5orf56 (11738088_a_at) / RFU OLFML3 (11715873_a_at) / Fold change /veh OLFML3 (11715873_a_at) / RFU LOC100653217 /// NTM (11731650_a_at) / Fold change /veh LOC100653217 /// NTM (11731650_a_at) / RFU MAPK11 (11762145_a_at) / Fold change /veh MAPK11 (11762145_a_at) / RFU FIZ1 (11724087_x_at) / Fold change /veh FIZ1 (11724087_x_at) / RFU OASL (11726364_x_at) / Fold change /veh OASL (11726364_x_at) / RFU SOX15 (11748057_x_at) / Fold change /veh SOX15 (11748057_x_at) / RFU CD79A (11719716_a_at) / Fold change /veh CD79A (11719716_a_at) / RFU HIST1H1D (11736915_at) / Fold change /veh HIST1H1D (11736915_at) / RFU CASKIN2 (11723855_a_at) / Fold change /veh CASKIN2 (11723855_a_at) / RFU LOC730098 (11760151_x_at) / Fold change /veh LOC730098 (11760151_x_at) / RFU OR4N2 (11742367_at) / Fold change /veh OR4N2 (11742367_at) / RFU PRRT2 (11749266_a_at) / Fold change /veh PRRT2 (11749266_a_at) / RFU SNX32 (11753110_a_at) / Fold change /veh SNX32 (11753110_a_at) / RFU CDHR5 (11726645_a_at) / Fold change /veh CDHR5 (11726645_a_at) / RFU RCAN1 (11760418_a_at) / Fold change /veh RCAN1 (11760418_a_at) / RFU FAM167A (11723789_a_at) / Fold change /veh FAM167A (11723789_a_at) / RFU FAM26E (11764081_at) / Fold change /veh FAM26E (11764081_at) / RFU ISYNA1 (11749810_s_at) / Fold change /veh ISYNA1 (11749810_s_at) / RFU ACY1 (11761880_at) / Fold change /veh ACY1 (11761880_at) / RFU 11764098_at / Fold change /veh 11764098_at / RFU SAMD14 (11745864_x_at) / Fold change /veh SAMD14 (11745864_x_at) / RFU NPB (11741838_a_at) / Fold change /veh NPB (11741838_a_at) / RFU TMPRSS6 (11731388_a_at) / Fold change /veh TMPRSS6 (11731388_a_at) / RFU KRTAP10-2 (11738614_at) / Fold change /veh KRTAP10-2 (11738614_at) / RFU ARHGAP8 /// PRR5-ARHGAP8 (11727945_x_at) / Fold change /veh ARHGAP8 /// PRR5-ARHGAP8 (11727945_x_at) / RFU KRTAP5-7 /// NADSYN1 (11734609_at) / Fold change /veh KRTAP5-7 /// NADSYN1 (11734609_at) / RFU RASL12 (11751679_a_at) / Fold change /veh RASL12 (11751679_a_at) / RFU CDKN2B (11736163_a_at) / Fold change /veh CDKN2B (11736163_a_at) / RFU PRF1 (11729649_at) / Fold change /veh PRF1 (11729649_at) / RFU, ZNF638 /// ZNF638-IT1 / Fold change vs veh, ZNF638 /// ZNF638-IT1 / RFU, PANK3 / Fold change vs veh, PANK3 / RFU, SH3YL1 / Fold change vs veh, SH3YL1 / RFU, ZEB2 / Fold change vs veh, ZEB2 / RFU, NRIP1 / Fold change vs veh, NRIP1 / RFU, PTTG1IP / Fold change vs veh, PTTG1IP / RFU, CAPN2 / Fold change vs veh, CAPN2 / RFU, MED14 / Fold change vs veh, MED14 / RFU, SNORA58 / Fold change vs veh, SNORA58 / RFU, C1orf63 / Fold change vs veh, C1orf63 / RFU, LRRFIP1 / Fold change vs veh, LRRFIP1 / RFU, NDUFAF7 / Fold change vs veh, NDUFAF7 / RFU, SLC12A2 / Fold change vs veh, SLC12A2 / RFU, IBTK / Fold change vs veh, IBTK / RFU, ESF1 / Fold change vs veh, ESF1 / Fold change vs veh, TMEM50B / RFU, TAOK1 / Fold change vs veh, TAOK1 / RFU, ACBD3 / Fold change vs veh, ACBD3 / RFU, TMA16 / Fold change vs veh, TMA16 / RFU, RWDD3 / Fold change vs veh, RWDD3 / RFU, BCAT1 / Fold change vs veh, BCAT1 / RFU, EDEM3 / Fold change vs veh, EDEM3 / RFU, TMEM33 / Fold change vs veh, TMEM33 / RFU, WDR75 / Fold change vs veh, WDR75 / RFU, AHCTF1 / Fold change vs veh, AHCTF1 / RFU, TFRC / Fold change vs veh, TFRC / RFU, ZDHHC17 / Fold change vs veh, ZDHHC17 / RFU, NOM1 / Fold change vs veh, NOM1 / RFU, ARL8B / Fold change vs veh, ARL8B / RFU, ZBTB11 / Fold change vs veh, ZBTB11 / RFU, TAMM41 / Fold change vs veh, TAMM41 / RFU, KIAA1704 /// LOC100996395 / Fold change vs veh, KIAA1704 /// LOC100996395 / RFU, ING1 / Fold change vs veh, ING1 / RFU, TRMT61B / Fold change vs veh, TRMT61B / RFU, FUBP3 / Fold change vs veh, FUBP3 / RFU, TP53 / Fold change vs veh, TP53 / RFU, TNKS2 / Fold change vs veh, TNKS2 / RFU, ZFP14 / Fold change vs veh, ZFP14 / RFU, ACTR2 / Fold change vs veh, ACTR2 / RFU, PPP3R1 / Fold change vs veh, PPP3R1 / RFU, PIK3R1 / Fold change vs veh, PIK3R1 / RFU, HNRNPA1 / Fold change vs veh, HNRNPA1 / RFU, RNF170 / Fold change vs veh, RNF170 / RFU, ZNF28 / Fold change vs veh, ZNF28 / RFU, RNGTT / Fold change vs veh, RNGTT / RFU, OGT / Fold change vs veh, OGT / RFU, BRD1 / Fold change vs veh, BRD1 / RFU, MARS / Fold change vs veh, MARS / RFU, ZNF655 / Fold change vs veh, ZNF655 / RFU, FAHD1 / Fold change vs veh, FAHD1 / RFU, BDP1 / Fold change vs veh, BDP1 / RFU, LRRCC1 / Fold change vs veh, LRRCC1 / RFU, ARID1A / Fold change vs veh, ARID1A / RFU, ZNF146 / Fold change vs veh, ZNF146 / RFU, ZNF330 / Fold change vs veh, ZNF330 / RFU, GPN3 / Fold change vs veh, GPN3 / RFU, C9orf123 / Fold change vs veh, C9orf123 / RFU, N4BP2L2 / Fold change vs veh, N4BP2L2 / RFU, ARFIP1 / Fold change vs veh, ARFIP1 / RFU, FAM179B / Fold change vs veh, FAM179B / RFU, BCL10 / Fold change vs veh, BCL10 / RFU, UHRF1BP1L / Fold change vs veh, UHRF1BP1L / RFU, BET1 / Fold change vs veh, BET1 / RFU, CNOT2 / Fold change vs veh, CNOT2 / RFU, ZNF268 / Fold change vs veh, ZNF268 / Fold change vs veh, ZNF507 / RFU, DGCR2 / Fold change vs veh, DGCR2 / RFU, WDSUB1 / Fold change vs veh, WDSUB1 / Fold change vs veh, HSP90B1 /// MIR3652 / RFU, ADSS / Fold change vs veh, ADSS / RFU, GK / Fold change vs veh, GK / RFU, ZNF148 / Fold change vs veh, ZNF148 / RFU, TAF9 / Fold change vs veh, TAF9 / RFU, SLC1A5 / Fold change vs veh, SLC1A5 / RFU, SLMO2 / Fold change vs veh, SLMO2 / RFU, ABCC4 / Fold change vs veh, ABCC4 / RFU, LOC101060439 /// RAP1B / Fold change vs veh, LOC101060439 /// RAP1B / RFU, RFX7 / Fold change vs veh, RFX7 / RFU, GTPBP10 / Fold change vs veh, GTPBP10 / RFU, CNEP1R1 / Fold change vs veh, CNEP1R1 / RFU, BIVM-ERCC5 /// ERCC5 / Fold change vs veh, BIVM-ERCC5 /// ERCC5 / RFU, ILF3 / Fold change vs veh, ILF3 / RFU 11762660_at / Fold change /veh 11762660_at / RFU VCAN (11757783_s_at) / Fold change /veh VCAN (11757783_s_at) / RFU DDX43 (11728927_at) / Fold change /veh DDX43 (11728927_at) / RFU KRT8 (11758188_x_at) / Fold change /veh KRT8 (11758188_x_at) / RFU NKD1 (11759106_at) / Fold change /veh NKD1 (11759106_at) / RFU SRD5A1 (11742802_a_at) / Fold change /veh SRD5A1 (11742802_a_at) / RFU TPSAB1 /// TPSB2 (11721975_s_at) / Fold change /veh TPSAB1 /// TPSB2 (11721975_s_at) / RFU GSTM3 (11746129_a_at) / Fold change /veh GSTM3 (11746129_a_at) / RFU IL23R (11737362_x_at) / Fold change /veh IL23R (11737362_x_at) / RFU TMEM51 (11727254_a_at) / Fold change /veh TMEM51 (11727254_a_at) / RFU PIWIL2 (11732686_x_at) / Fold change /veh PIWIL2 (11732686_x_at) / RFU ORM1 (11744905_x_at) / Fold change /veh ORM1 (11744905_x_at) / RFU CCDC152 (11743942_at) / Fold change /veh CCDC152 (11743942_at) / RFU ECM1 (11717891_a_at) / Fold change /veh ECM1 (11717891_a_at) / RFU IL23R (11748794_a_at) / Fold change /veh IL23R (11748794_a_at) / RFU TNFAIP8L3 (11732012_x_at) / Fold change /veh TNFAIP8L3 (11732012_x_at) / RFU MBOAT4 (11741988_at) / Fold change /veh MBOAT4 (11741988_at) / RFU 11764193_at / Fold change /veh 11764193_at / RFU TMEM53 (11763286_at) / Fold change /veh TMEM53 (11763286_at) / RFU MAGEB2 (11727129_at) / Fold change /veh MAGEB2 (11727129_at) / RFU TMEM200A (11744735_a_at) / Fold change /veh TMEM200A (11744735_a_at) / RFU CCDC152 (11751479_a_at) / Fold change /veh CCDC152 (11751479_a_at) / RFU FAM211A (11726209_a_at) / Fold change /veh FAM211A (11726209_a_at) / RFU RGS16 (11746705_a_at) / Fold change /veh RGS16 (11746705_a_at) / RFU VCAN (11755009_s_at) / Fold change /veh VCAN (11755009_s_at) / RFU RHOB (11743442_s_at) / Fold change /veh RHOB (11743442_s_at) / RFU RGS16 (11720943_a_at) / Fold change /veh RGS16 (11720943_a_at) / RFU RGS16 (11720944_at) / Fold change /veh RGS16 (11720944_at) / RFU, VPS4B / Fold change vs veh, VPS4B / RFU, CREB1 / Fold change vs veh, CREB1 / RFU, DNAJC13 / Fold change vs veh, DNAJC13 / RFU, GNAQ / Fold change vs veh, GNAQ / RFU, CDK5R1 / Fold change vs veh, CDK5R1 / RFU, ZRANB3 / Fold change vs veh, ZRANB3 / RFU, CUL4A / Fold change vs veh, CUL4A / RFU, CCNY / Fold change vs veh, CCNY / RFU, UFL1 / Fold change vs veh, UFL1 / RFU, COG3 / Fold change vs veh, COG3 / RFU, DIAPH2 / Fold change vs veh, DIAPH2 / RFU, SKA2 / Fold change vs veh, SKA2 / RFU, AFF3 / Fold change vs veh, AFF3 / RFU, LMF1 / Fold change vs veh, LMF1 / RFU, IPO11 / Fold change vs veh, IPO11 / RFU, DFFB / Fold change vs veh, DFFB / RFU, FOXP1 / Fold change vs veh, FOXP1 / RFU, CARD8 / Fold change vs veh, CARD8 / RFU, STRN3 / Fold change vs veh, STRN3 / RFU, ADK / Fold change vs veh, ADK / RFU, RASSF2 / Fold change vs veh, RASSF2 / RFU, WIPF1 / Fold change vs veh, WIPF1 / RFU, LARP1B / Fold change vs veh, LARP1B / RFU, RASA1 / Fold change vs veh, RASA1 / RFU, RB1 / Fold change vs veh, RB1 / RFU, PPFIA1 / Fold change vs veh, PPFIA1 / RFU, MAT2A / Fold change vs veh, MAT2A / RFU, CCT5 / Fold change vs veh, CCT5 / RFU, WDR92 / Fold change vs veh, WDR92 / RFU, CUX1 / Fold change vs veh, CUX1 / RFU, TTC7A / Fold change vs veh, TTC7A / RFU, TMEM135 / Fold change vs veh, TMEM135 / RFU, DEPTOR / Fold change vs veh, DEPTOR / RFU, CPM / Fold change vs veh, CPM / RFU, DNAJB6 / Fold change vs veh, DNAJB6 / RFU, CACNA2D3 / Fold change vs veh, CACNA2D3 / RFU, DTX4 / Fold change vs veh, DTX4 / RFU, TFCP2 / Fold change vs veh, TFCP2 / RFU, GMCL1 /// GMCL1P1 / Fold change vs veh, GMCL1 /// GMCL1P1 / RFU, AEBP2 / Fold change vs veh, AEBP2 / RFU, SNHG1 /// SNORD22 /// SNORD25 /// SNORD26 /// SNORD27 /// SNORD28 /// SNORD29 /// SNORD31 / Fold change vs veh, SNHG1 /// SNORD22 /// SNORD25 /// SNORD26 /// SNORD27 /// SNORD28 /// SNORD29 /// SNORD31 / Fold change (Aza/veh), C12orf56 (ProbeSet 11735607_a_at) / Fold change (ACY-1035/veh), C12orf56 (ProbeSet 11735607_a_at) / Fold change (Aza/veh), FGFR1OP (ProbeSet 11751329_s_at) / Fold change (ACY-1035/veh), FGFR1OP (ProbeSet 11751329_s_at) / Fold change (Aza/veh), VPS36 (ProbeSet 11739960_a_at) / Fold change (ACY-1035/veh), VPS36 (ProbeSet 11739960_a_at) / RFU SYPL1 (11715823_x_at) / Fold change /veh SYPL1 (11715823_x_at) / RFU IGFBP7 (11715501_s_at) / Fold change /veh IGFBP7 (11715501_s_at) / RFU REEP3 (11722064_at) / Fold change /veh REEP3 (11722064_at) / RFU IGLL1 (11728026_x_at) / Fold change /veh IGLL1 (11728026_x_at): dose or concentration left out as unconfirmed
Conditions: ProbeSet 11727958_a_at; LIST B

In the case of Nc1ncn([C@@H]2O[C@H](CO)[C@@H](O)[C@H]2O)c(=O)n1 [azacitidine], the “Fold change vs veh, ING1” value is reported as 0.99.
